Structures can show the parent of a compound that is named as a salt. Where two headings read alike, the source gives them in different places. One block for each molecule: values may come before it.
What was measured:
[1] = test system: Leptospira canicola Kipod 146; assay: Anti leptospiral activity (minimal inhibition concentration); type: cell-based; conditions: for MIC: Leptospira interrogans, KIPOD146, 240 h; for anti leptospiral activity: summary in words
Method: The tests were carried out under the following conditions:
Leptospira: Leptospira canicola Kipod 146
Inoculum: 1-10^5 cells/ml
Incubation time: 10 days, 28° C.
Evaluation: Direct count in dark field microscopy after 4,7 and 10 days.
2 Minimal+0.5% albumin (Pentex)
3 Korthof rich medium with 8% serum.
4 Korthof rich medium with 2% serum.

Trypanosoma = assay: Anti trypanosoma test in vitro; type: cell-based; conditions: for Trypanosoma in vitro activity score: 37° C., scoring as in b (promastigotes); for activity against Trypanosoma: summary in words
Method: Trypanosoma in RPM1 medium in vitro at 37° C. Scoring as in b.

Leishmania = assay: Anti leishmania tests, summary; type: cell-based, L. tropica; conditions: summary in words
Method: (§1) a. amastigotes in peritoneal exudate cells in Mc Coy's medium in vitro at 37° C.
(§2) b. promastigotes in Mc Coy's medium in vitro at 27° C.

L. tropica amastigotes = assay: Anti leishmania test, amastigotes in peritoneal exudate cells in vitro; type: cell-based; conditions: 37° C.
Method: as §1
+++=clearance of all parasites in 24 hours
++=clearance of all parasites in 48 hours
+=clearance of all parasites in 72 hours
±=Partial clearance of parasites in 72 hours or more
-=No activity against parasites.

albino mice [2] = assay: Stereotyped behaviour in mice; type: in vivo, Male ICR albino mice; design: scale not given here; conditions: 50 mg/kg i.p.
albino rats = assay: Antiparkinson activity (catalepsy produced by haloperidol); type: in vivo, Male Charles River albino rats; conditions: 80 mg/kg i.p.
Method: Male Charles River albino rats, weighing 200-250 g, were used. Catalepsy was produced by haloperidol, 5 mg/kg i.p. The animals were placed with their front paws on a horizontal bar, about 10 cm above the ground, and animals were considered cataleptic if not changing posture for at least 30 sec. Cataleptic animals were injected i.p. with one of the drugs at a dose of 40-80 mg/kg. Catalepsy was estimated again at the intervals indicated.

albino mice [3] = assay: Stereotyped behaviour in mice; type: in vivo, Male ICR albino mice; design: stereotyped behaviour score / Total Score / Mean Score: scale not given here; conditions: 50 mg/kg i.p.
Method: Male ICR albino mice weighing 25-30 g were put in cages with a metal grid floor, 4 in each cage. Drugs were injected intraperitoneally and stereotyped behaviour (sniffing, biting, repetitive head movement) was evaluated every 30 min.

L. tropica promastigotes = assay: Anti leishmania test, promastigotes in vitro; type: cell-based; conditions: 27° C.
Method: as §2
+++=No viable parasites after 24 hours
++=No viable parasites after 48 hours
+=No viable parasites after 72 hours
±=No viable parasites after 96 hours p2 -=viable parasites after 120 hours.

HSV-1 (Herpes Simplex) = assay: Inhibition test on HSV replication; type: cell-based
Description: BSC-1 (Green monkey kidney)
**% Inhibition of control infected for some time with same virus PFV with […]

[4] = Toxic limit in the HSV replication test; conditions: monkey, bsc-1 cells
[5] = minimal + Pentex (0.5% albumin)

- MIC ([1]; Korthof + 8% serum): 50 µg/mL
- MIC ([1]; minimal medium): 12.5 µg/mL
Structure (SMILES): FC(F)(F)c1cccc(NNC2C3CC4CC(C3)CC2C4)c1 (centres unmarked) [Example 6, 1-(2'-Adamantyl)-2-(m-trifluoromethylphenyl)hydrazine hydrochloride]
- anti leptospiral activity [1]: active

Structure (SMILES): CC(C)NNC1C2CC3CC(C2)CC1C3 (centres unmarked) [Example 51, 1-(2'-Adamantyl)-2-isopropylhydrazine hydrochloride]
- Trypanosoma in vitro activity score (Trypanosoma; 100 μg): +++ (No viable parasites after 24 hours)
- activity against Trypanosoma (Trypanosoma): active
- activity against Leishmania (Leishmania): active
- Leishmania amastigote activity score (L. tropica amastigotes; 10 μg): ± (Partial clearance of parasites in 72 hours or more)
- Leishmania amastigote activity score (L. tropica amastigotes; 100 μg): ++ (clearance of all parasites in 48 hours)

Structure (SMILES): c1ccc(NNC2C3CC4CC(C3)CC2C4)nc1 (centres unmarked) [Example 8, 1-(2'-Adamantyl)-2-(2"-pyridyl)hydrazine hydrochloride]
- Trypanosoma in vitro activity score (Trypanosoma; 10 μg): + (No viable parasites after 72 hours)
- Trypanosoma in vitro activity score (Trypanosoma; 100 μg): +++ (No viable parasites after 24 hours)
- activity against Trypanosoma (Trypanosoma): active
- activity against Leishmania (Leishmania): active
- Leishmania amastigote activity score (L. tropica amastigotes; 10 μg): + (clearance of all parasites in 72 hours)
- Leishmania amastigote activity score (L. tropica amastigotes; 100 μg): +++ (clearance of all parasites in 24 hours)

- MIC ([1]; Korthof + 8% serum): 12.5 µg/mL
- MIC [1, 5]: 12.5 µg/mL
- MIC ([1]; minimal medium): 12.5 µg/mL
Structure (SMILES): CN(C)NC1C2CC3CC(C2)CC1C3 (centres unmarked) [Example 1, 1-(2'-Adamantyl)-2,2-dimethylhydrazine hydrochloride]
- anti leptospiral activity [1]: active

Structure (SMILES): NC12CC3CC(CC(C3)C1)C2 [Symmetrel, reference compound]
- stereotyped behaviour score (albino mice [2]; 45 min, mouse 1): 1
- stereotyped behaviour score (albino mice [2]; 45 min, mouse 2): 1
- stereotyped behaviour score (albino mice [2]; 135 min, mouse 3): 2
- stereotyped behaviour score (albino mice [2]; 135 min, mouse 4): 2
- anticataleptic effect (albino rats; rat 1): 0/4
- anticataleptic effect (albino rats; rat 2): 2/4
- anticataleptic effect (albino rats; rat 3): 3/4
- anticataleptic effect (albino rats; rat 4): 3/4
- anticataleptic effect (albino rats; rat 5): 3/4
- stereotyped behaviour score (albino mice [3]; 0 min, mouse 1): 0
- stereotyped behaviour score (albino mice [3]; 0 min, mouse 2): 0
- stereotyped behaviour score (albino mice [3]; 0 min, mouse 3): 0
- stereotyped behaviour score (albino mice [3]; 0 min, mouse 4): 0
- stereotyped behaviour score (albino mice [3]; 30 min, mouse 1): 1
- stereotyped behaviour score (albino mice [3]; 30 min, mouse 2): 1
- stereotyped behaviour score (albino mice [3]; 30 min, mouse 3): 1
- stereotyped behaviour score (albino mice [3]; 30 min, mouse 4): 1
- stereotyped behaviour score (albino mice [3]; 45 min, mouse 3): 1
- stereotyped behaviour score (albino mice [3]; 45 min, mouse 4): 1
- stereotyped behaviour score (albino mice [3]; 60 min, mouse 1): 2
- stereotyped behaviour score (albino mice [3]; 60 min, mouse 2): 2
- stereotyped behaviour score (albino mice [3]; 60 min, mouse 3): 1
- stereotyped behaviour score (albino mice [3]; 60 min, mouse 4): 1
- stereotyped behaviour score (albino mice [3]; 90 min, mouse 1): 1
- stereotyped behaviour score (albino mice [3]; 90 min, mouse 2): 1
- stereotyped behaviour score (albino mice [3]; 90 min, mouse 3): 2
- stereotyped behaviour score (albino mice [3]; 90 min, mouse 4): 1
- stereotyped behaviour score (albino mice [3]; 120 min, mouse 1): 2
- stereotyped behaviour score (albino mice [3]; 120 min, mouse 2): 2
- stereotyped behaviour score (albino mice [3]; 120 min, mouse 3): 2
- stereotyped behaviour score (albino mice [3]; 120 min, mouse 4): 2
- stereotyped behaviour score (albino mice [3]; 135 min, mouse 1): 2
- stereotyped behaviour score (albino mice [3]; 135 min, mouse 2): 2
- stereotyped behaviour score (albino mice [3]; 150 min, mouse 1): 2
- stereotyped behaviour score (albino mice [3]; 150 min, mouse 2): 2
- stereotyped behaviour score (albino mice [3]; 150 min, mouse 3): 2
- stereotyped behaviour score (albino mice [3]; 150 min, mouse 4): 2
- stereotyped behaviour score (albino mice [3]; 180 min, mouse 1): 2
- stereotyped behaviour score (albino mice [3]; 180 min, mouse 2): 2
- stereotyped behaviour score (albino mice [3]; 180 min, mouse 3): 2
- stereotyped behaviour score (albino mice [3]; 180 min, mouse 4): 2
- stereotyped behaviour score (albino mice [3]; 210 min, mouse 1): 2
- stereotyped behaviour score (albino mice [3]; 210 min, mouse 2): 2
- stereotyped behaviour score (albino mice [3]; 210 min, mouse 3): 2
- stereotyped behaviour score (albino mice [3]; 210 min, mouse 4): 1
- stereotyped behaviour score (albino mice [3]; 240 min, mouse 1): 2
- stereotyped behaviour score (albino mice [3]; 240 min, mouse 2): 2
- stereotyped behaviour score (albino mice [3]; 240 min, mouse 3): 2
- stereotyped behaviour score (albino mice [3]; 240 min, mouse 4): 0
- Mean Score (albino mice [3]; mean of 4 mice): 16
- Total Score (albino mice [3]; mouse 1): 17
- Total Score (albino mice [3]; mouse 2): 17
- Total Score (albino mice [3]; mouse 3): 17
- Total Score (albino mice [3]; mouse 4): 13

Structure (SMILES): N=C(N)c1ccc(OCCCCCOc2ccc(C(=N)N)cc2)cc1 [Pentamidine, reference compound]
- Trypanosoma in vitro activity score (Trypanosoma; 100 μg): ++ (No viable parasites after 48 hours)
- Leishmania promastigote activity score (L. tropica promastigotes; 10 μg): +++ (No viable parasites after 24 hours)
- Leishmania promastigote activity score (L. tropica promastigotes; 100 μg): +++ (No viable parasites after 24 hours)

Structure (SMILES): C1CCCN(NC2C3CC4CC(C3)CC2C4)CC1 (centres unmarked) [Example 11, 1-(2'-Adamantylamino)homopiperidine hydrochloride]
- Trypanosoma in vitro activity score (Trypanosoma; 10 μg): + (No viable parasites after 72 hours)
- Trypanosoma in vitro activity score (Trypanosoma; 100 μg): +++ (No viable parasites after 24 hours)
- activity against Trypanosoma (Trypanosoma): active

Structure (SMILES): CC(NNC1C2CC3CC(C2)CC1C3)C(=O)O (stereo not drawn) [Example 38, α-[2-(2'-Adamantyl)hydrazino]propionic acid hydrochloride]
- activity against Leishmania (Leishmania): active
- Leishmania promastigote activity score (L. tropica promastigotes; 10 μg): ± (No viable parasites after 96 hours)
- Leishmania promastigote activity score (L. tropica promastigotes; 100 μg): ++ (No viable parasites after 48 hours)
- Leishmania amastigote activity score (L. tropica amastigotes; 100 μg): ++ (clearance of all parasites in 48 hours)

Structure (SMILES): CNN(C)C1C2CC3CC(C2)CC1C3 (centres unmarked) [Example 49, 1-(2'-Adamantyl)-1,2-dimethylhydrazine hydrochloride]
- Trypanosoma in vitro activity score (Trypanosoma; 100 μg): ++ (No viable parasites after 48 hours)
- activity against Trypanosoma (Trypanosoma): active
- inhibition at 50 µg/mL (HSV-1 (Herpes Simplex); Human alphaherpesvirus 1, 50 μg/ml, BSC-1 cells, 10 PFU/cell, read-out: % Inhibition): 60%
- inhibition at 100 µg/mL (HSV-1 (Herpes Simplex); Human alphaherpesvirus 1, 100 μg/ml, BSC-1 cells, 10 PFU/cell): 92%
- inhibition at 200 µg/mL (HSV-1 (Herpes Simplex); Human alphaherpesvirus 1, 200 μg/ml, BSC-1 cells, 10 PFU/cell): 99.9%
- MNTC [4]: 100 µg/mL

- MIC ([1]; Korthof + 2% serum): 12.5 µg/mL
- MIC ([1]; Korthof + 8% serum): 12.5 to 25 µg/mL
- MIC [1, 5]: 25 µg/mL
- MIC ([1]; minimal medium): 25 µg/mL
Structure (SMILES): CN(CC(=O)O)NC1C2CC3CC(C2)CC1C3 (centres unmarked) [Example 37, [2-(2'-Adamantyl)-1-methylhydrazino]acetic acid hydrochloride]
- anti leptospiral activity [1]: active

Structure (SMILES): CNNC1C2CC3CC(C2)CC1C3 (centres unmarked) [Example 25, 1-(2'-Adamantyl)-2-methylhydrazine hydrochloride]
- activity against Leishmania (Leishmania): active
- Leishmania promastigote activity score (L. tropica promastigotes; 100 μg): +++ (No viable parasites after 24 hours)
- Leishmania amastigote activity score (L. tropica amastigotes; 100 μg): ++ (clearance of all parasites in 48 hours)

Structure (SMILES): NC12CC3CC(CC(C3)C1)C2 [Amant., Amantadine, reference compound]
- inhibition at 50 µg/mL (HSV-1 (Herpes Simplex); Human alphaherpesvirus 1, BSC-1): 93%
- MNTC [4]: 50 µg/mL

- MIC ([1]; Korthof + 8% serum): 100 µg/mL
- MIC ([1]; minimal medium): 6.25 µg/mL
Structure (SMILES): c1ccc(NNC2C3CC4CC(C3)CC2C4)cc1 (centres unmarked) [Example 3, 1-(2'-Adamantyl)-2-phenylhydrazine hydrochloride]
- anti leptospiral activity [1]: active
- Trypanosoma in vitro activity score (Trypanosoma; 10 μg): + (No viable parasites after 72 hours)
- Trypanosoma in vitro activity score (Trypanosoma; 100 μg): +++ (No viable parasites after 24 hours)
- activity against Trypanosoma (Trypanosoma): active

Reference: patent publication US4254128A, “2-Adamantyl hydrazines and biocidal compositions thereof” (Teva Pharmaceutical Industries Ltd., priority 1977, dated 1981)
